The subject of experiment [1] is human sdLDL. Description: Copper-induced sdLDL oxidation with fatty acids, TBARS/MDA (Example 14). In kind it is biochemical. The note with it: 1.0 μM; for effect on lipoprotein oxidation compared to vehicle / inhibition of lipoprotein oxidation versus vehicle: 40 minutes; for effect on oxidation: 60 minutes. Here is the method:
Venous blood was collected from healthy volunteers into vacutainer tubes. Plasma was separated by centrifugation at 3000 g for 25 min at 4° C. and adjusted to a density of 1.020 g/mL with KBr. sdLDL was isolated from the plasma of healthy volunteers by iodixanol density gradient ultracentrifugation and adjusted to a final apolipoprotein concentration of 2 mg/mL. An aliquot of sdLDL (50 μL) was incubated with either 10 μL vehicle (ethanol) or 10 μL FA (EPA, ETE, AA, EA, DHA, DPA, ALA, LA or SA) treatment stock solution (100 μM) for 30 min at 37° C. Oxidation was initiated with addition of initiator CuSO4 (10.0 μM). At certain time points (0, 40, 60, and 120 minutes), […] were removed from each subfraction and combined with 1.0 mL thiobarbituric acid (0.5%), 10 μL trichloroacetic acid (10%), 10 μL butylated hydroxytoluene (BHT; 35 mM in ethanol), and 10 μL ethylenediaminetetraacetic acid (EDTA; 5 mM). Sample aliquots were incubated at 100° C. for 30 min and then assayed for the formation of thiobarbituric acid reactive substances (TBARS), which have a molar absorptivity (ε) value of 1.56×105 M^−1 cm^−1 at 532 nm and are largely derived from the reaction of thiobarbituric acid with MDA, a reactive aldehyde produced by sdLDL oxidation. Sample TBARS concentrations were determined spectrophotometrically by measuring sample absorbances against a standard curve derived from the hydrolysis of 1,1,3,3-tetramethoxypropane.

Experiment [2] in a line: Membrane cholesterol domain structural integrity, x-ray diffraction (Example 9). As to conditions: D/P mole ratio 1:30, C/P 1.5:1. Here is the method: Multilamellar vesicles (MLVs) were prepared as binary mixtures that include palmitoyloleoylphosphatidylcholine (POPC) (1.0 mg total phospholipid per sample) and cholesterol at an elevated cholesterol-to-phospholipid (C/P) mole ratio of 1.5:1. […] Samples were shell-dried under nitrogen gas and placed under vacuum for 3 hours to remove residual solvent at room temperature. After desiccation, each sample was resuspended in saline buffer (0.5 mM HEPES, 154 mM NaCl, pH 7.3) to yield a final phospholipid concentration of 2.5 mg/mL. Lipid suspensions were then vortexed for 3 minutes at ambient temperature to form MLVs.
Briefly, a 100 μL aliquot of each MLV preparation (containing 250 μg MLV) was transferred to a Lucite® sedimentation cell fitted with an aluminum foil substrate designed to collect MLVs into a single membrane pellet upon centrifugation. Samples were then loaded into a Sorvall AH-629 swinging bucket rotor (DuPont Corp., Wilmington, Del.) and centrifuged at 35,000 g, 5° C., for 90 minutes.
After centrifugal orientation, sample supernatants were aspirated and aluminum foil substrates, each supporting a single membrane pellet, were removed from the sedimentation cells. Sample pellets were dried for 5-10 minutes at ambient conditions, mounted onto curved glass supports, and placed in hermetically-sealed, brass or glass containers (for immediate analysis or temporary storage, respectively). All x-ray diffraction experiments were conducted at 20° C., 74% relative humidity. The latter was established by exposing membrane samples to saturated solutions of […] (K2C4H4O6.½H2O) for at least 1 hour prior to experimental analysis.
Oriented membrane samples were aligned at grazing incidence with respect to a collimated, mono-chromatic CuKα x-ray beam (Kα1 and Kα2 unresolved; λ=1.54 Å) produced by a Rigaku Rotaflex RU-200, high-brilliance microfocus generator (Rigaku-MSC, The Woodlands, Tex.) as previously described (Mason et al., Biophys. J., vol. 55(4), pages 769-778 (1989)). The samples were initially subjected to x-ray diffraction analysis at least 12 hours after formation of the membrane pellets and retested for up to several days. Analytical x-rays were generated by electron bombardment of a rotating copper anode and are filtered through a thin nickel foil to provide monochromatic radiation (λ=1.54 Å). Collimation of the x-ray beam was achieved using a single Franks mirror. Diffraction data were collected on a one-dimensional, position-sensitive electron detector (Hecus X-ray Systems, Graz, Austria) at a sample-to-detector distance of 150 mm from the sample site.
The d-space for any given membrane multi bilayer is a measurement of the unit cell periodicity of the membrane lipid bilayer (e.g., the distance from the center of one lipid bilayer to the next including surface hydration), and is calculated from Bragg's Law, hλ=2d sin θ, where h is the diffraction order, λ is the wavelength of the x-ray radiation (1.54 Å), d is the membrane lipid bilayer unit cell periodicity, and θ is the Bragg angle equal to one-half the angle between the incident beam and scattered beam.
The presence of cholesterol domains in a given membrane sample results in the production of distinct Bragg (diffraction) peaks having singular periodicity values of 34 and 17 Å (typically referred to as first- and second-order cholesterol domain peaks). Under the specific temperature and relative humidity conditions established for these experiments, the second-order, 17 Å cholesterol domain peak was well-delineated from other, neighboring cholesterol and phospholipid diffraction peaks and was thus used to quantitate relative cholesterol domain peak intensity. Routines written in Origin 8.6 (OriginLab Corporation, Northampton, Mass.) were used to determine total peak area (associated with all diffraction peaks in a given pattern) against which the second-order cholesterol domain peak was normalized.

Experiment [3] can be described thus: LOOH formation in membrane vesicles, fatty acid comparison (Example 16). In kind it is biochemical. The note with it: 5 μM; 0.1 μM copper sulfate, 48 hours. Here is the method:
Iodometric approaches were used to measure in vitro LOOH formation in membrane vesicles reconstituted as binary mixtures of cholesterol and dilinoleoyl phosphatidylcholine. Vesicles were prepared at a cholesterol-to-phospholipid mole ratio of 0.6:1 and subjected to autoxidation (e.g., lipid oxidation) at 37° C. Lipid oxidation was stimulated with 0.1 μM copper sulfate for 48 hours. All FAs were delivered at 5 and 10 μM.

The subject of experiment [4] is human sdLDL. Description: Glucose-induced sdLDL oxidation, MDA/TBARS (Example 10). It counts as biochemical. The note with it: 10 μM; glucose 200 mg/dL; 1 hr. Here is the method: Vitamin E (α-tocopherol) purchased from Sigma-Aldrich was prepared in ethanol at 1.0 mM (ε=3.06×10^4M^−1 cm^−1 at 294 nm) prior to experimental use. Test compounds were further diluted in ethanol or aqueous buffer as needed. Phosphate Buffered Saline (PBS) purchased from Sigma-Aldrich was prepared in double distilled water at 10 mM (138 mM NaCl, 2.7 mM KCl, pH 7.4). Glucose prepared in PBS was added to test samples to achieve a final concentration of 11.0 mM (200 mg/dL).
LDL and sdLDL were isolated from the plasma of healthy volunteers by iodixanol density gradient ultracentrifugation and adjusted to a final apolipoprotein concentration of 10 mg/mL. […] Sample aliquots were incubated at 100° C. for 30 minutes and then assayed for the formation of thiobarbituric acid-reactive substances (TBARS), having a molar absorptivity (ε) value of 1.56×10^5 M^−1 cm^−1 at 532 nm and were derived principally from the reaction of thiobarbituric acid with malondialdehyde (MDA). Lipid oxidation was measured by the colorimetric detection of malondialdehyde (MDA), a marker of oxidative stress.

In experiment [5] the test system is human sdLDL. Description: Copper-induced sdLDL oxidation, TBARS (Example 7). The note with it: 10 μM; 1 hour. In kind it is biochemical.
Protocol: An experiment to study the antioxidant effect of EPA in LDL and small dense LDL (“sdLDL”) was performed. LDL and sdLDL were isolated from the plasma of healthy volunteers by iodixanol density gradient ultracentrifugation, and adjusted to a final apolipoprotein concentration of 2 mg/mL. […] Lipid oxidation was initiated with 10 μM CuSO4 and monitored by the colorimetric detection of thiobarbituric acid reactive substances (TBARS) for 1 hr. Vitamin E was also incubated with sample aliquots as a positive control.
The next experiment deals with human LDL. Briefly: Copper-induced oxidation of unfractionated LDL, TBARS (Example 7). It counts as biochemical. As to conditions: 10 μM; 1 hour. Here is the method: An experiment to study the antioxidant effect of EPA in LDL and small dense LDL (“sdLDL”) was performed. LDL and sdLDL were isolated from the plasma of healthy volunteers by iodixanol density gradient ultracentrifugation, and adjusted to a final apolipoprotein concentration of 2 mg/mL. […] Vitamin E was also incubated with sample aliquots as a positive control.

Values joined by “and” are separate entries in the source; they are usually repeats but may differ in a detail not shown here. Identical values can stand only once.

For `CCCCC/C=C\C/C=C\C/C=C\C/C=C\CCCC(=O)O` [AA, arachidonic acid], in the experiment on human sdLDL [1], the “effect on lipoprotein oxidation compared to vehicle” value is given as “failed to inhibit lipoprotein oxidation”. The “MDA Equivalents (Mean ± SD)” value in the experiment with human sdLDL [1] (time point 0 min) was 0.67 ± 0.06 µM; in the experiment with human sdLDL [1] (time point 40 min), 10.89 ± 0.35 µM; in the experiment with human sdLDL [1] (time point 60 min), 11.86 ± 0.46 µM; in the experiment with human sdLDL [1] (time point 120 min) it was 12.88 ± 0.60 µM. For the same compound, the “% change Vs control (cholesterol domain peak intensity)” value (“% change Vs control” for short) in experiment [2] was −45.2% and −46.8 ± 15.2%. For the same compound, in experiment [2], the “Relative Cholesterol Domain Peak Intensity” value came to 22.5 ± 4.3.
Take `CC/C=C\C/C=C\C/C=C\CCCCCCCC(=O)O` [ALA, α-linolenic acid]: the “inhibition of lipoprotein oxidation versus vehicle” value in the experiment on human sdLDL [1] was 16% and 15%. For the same compound, the effect on oxidation entry in the experiment with human sdLDL [1] is recorded as “failed to inhibit oxidation at 60 minutes”. For the same compound, the “MDA Equivalents (Mean ± SD)” value in the experiment with human sdLDL [1] (time point 0 min) amounted to 0.40 ± 0.06 µM; in the experiment with human sdLDL [1] (time point 40 min), 8.91 ± 0.24 µM; in the experiment with human sdLDL [1] (time point 60 min) it was 11.48 ± 0.18 µM; in the experiment on human sdLDL [1] (time point 120 min), 12.94 ± 0.40 µM. In experiment [3], the “reduction of LOOH levels compared to the vehicle” value is 27%. Moreover, the “% change Vs control” value in experiment [2] is −46.8% and −45.2 ± 11.3%. Moreover, the “Relative Cholesterol Domain Peak Intensity” value in experiment [2] amounted to 23.2 ± 0.6.
In the case of `CCCCCCCCCCCCCCCCCCCC(=O)O` [EA, eicosanoic acid], the “effect on lipoprotein oxidation compared to vehicle” value with human sdLDL [1] is recorded as “did not completely inhibit oxidation compared to vehicle”. Moreover, the “MDA Equivalents (Mean ± SD)” value is 1.06 ± 0.09 µM in the experiment with human sdLDL [1] (time point 0 min), 11.27 ± 0.28 µM in the experiment with human sdLDL [1] (time point 40 min), 11.65 ± 0.65 µM with human sdLDL [1] (time point 60 min) and 13.22 ± 0.68 µM in the experiment with human sdLDL [1] (time point 120 min).
The corresponding values for `CCCCC/C=C\C/C=C\CCCCCCCC(=O)O` [LA, linoleic acid] are “did not completely lipoprotein oxidation”, 0.57 ± 0.12 µM, 10.74 ± 0.27 µM, 11.89 ± 0.30 µM and 12.55 ± 0.78 µM.
`CCCCCCCC/C=C\CCCCCCCC(=O)O` [OA, oleic acid]: the “effect on lipoprotein oxidation compared to vehicle” value with human sdLDL [1] is given as “did not completely lipoprotein oxidation”. The “MDA Equivalents (Mean ± SD)” value came to 0.78 ± 0.13 µM with human sdLDL [1] (time point 0 min), 10.98 ± 0.36 µM in the experiment on human sdLDL [1] (time point 40 min), 12.00 ± 0.19 µM in the experiment with human sdLDL [1] (time point 60 min) and 12.57 ± 0.38 µM in the experiment with human sdLDL [1] (time point 120 min).
On the same counts, the results for `CCCCCCCCCCCCCCCCCC(=O)O` [SA, stearic acid] are “did not completely inhibit oxidation compared to vehicle”, 0.78 ± 0.01 µM, 10.60 ± 0.21 µM, 12.07 ± 0.23 µM and 12.33 ± 0.10 µM.
In the case of `Cc1ccc(C)c(OCCCC(C)(C)C(=O)O)c1` [gemfibrozil], the “effect on glucose-induced sdLDL oxidation” value in the experiment on human sdLDL [4] is “did not inhibit glucose-induced sdLDL oxidation”. Further, the “effect on sdLDL oxidation compared to vehicle-treated controls” value in the experiment on human sdLDL [5] is “no significant effect on sdLDL oxidation”. In addition, the “effect on unfractionated LDL oxidation” value with human LDL is recorded as “no significant effect on unfractionated LDL oxidation”. The “% change Vs control” value is 11% in experiment [2] and −10.9 ± 43.3% in experiment [2] (listed as Gemfib). In addition, the “Relative Cholesterol Domain Peak Intensity” value in experiment [2] is 46.9±12.6; in experiment [2] (listed as Gemfib) it was 46.9 ± 12.6.
For the compound `CC1(C)[C@@H](O[C@H]2O[C@H](C(=O)O)[C@@H](O)[C@H](O)[C@H]2O[C@@H]2O[C@H](C(=O)O)[C@@H](O)[C@H](O)[C@H]2O)CC[C@]2(C)[C@H]3C(=O)C=C4[C@@H]5C[C@@](C)(C(=O)O)CC[C@]5(C)CC[C@@]4(C)[C@]3(C)CC[C@@H]12` [glycyrrhizin], in experiment [2], the “% change Vs control” value is listed as −54.9 ± 12.3%, the “Relative Cholesterol Domain Peak Intensity” value is 19.1±1.2 and the “reduction in cholesterol domain peaks compared to vehicle” value is 54.9%. Further, in experiment [2] (listed as Glyc), the “Relative Cholesterol Domain Peak Intensity” value worked out at 19.1 ± 1.2.
On to `O=C(O)c1cccnc1` [niacin, nicotinic acid], for which the “effect on glucose-induced sdLDL oxidation” value in the experiment with human sdLDL [4] is recorded as “did not inhibit glucose-induced sdLDL oxidation”. For the same compound, the “effect on sdLDL oxidation compared to vehicle-treated controls” value with human sdLDL [5] was “no significant effect on sdLDL oxidation”. For the same compound, in the experiment with human LDL, the “effect on unfractionated LDL oxidation” value is “no significant effect on unfractionated LDL oxidation”. In experiment [2], the “% change Vs control” value was −35% and the “Relative Cholesterol Domain Peak Intensity” value is recorded as 27.5±12.2. Moreover, in experiment [2] (listed as Niacin), the “% change Vs control” value is recorded as −35.0 ± 30.8% and the “Relative Cholesterol Domain Peak Intensity” value is on record as 27.5 ± 12.2.
With eicosatrienoic acid [ETE], the “inhibition of lipoprotein oxidation versus vehicle” value with human sdLDL [1] was determined as 32%. Further, in the experiment with human sdLDL [1], the effect on oxidation entry was “failed to inhibit oxidation at 60 minutes”. The “MDA Equivalents (Mean ± SD)” value with human sdLDL [1] (time point 0 min) was 0.40 ± 0.11 µM; with human sdLDL [1] (time point 40 min), 7.19 ± 0.43 µM; in the experiment on human sdLDL [1] (time point 60 min), 10.90 ± 0.28 µM; in the experiment on human sdLDL [1] (time point 120 min) it was 12.57 ± 0.15 µM. Also, the “reduction of LOOH levels compared to the vehicle” value in experiment [3] is 36%.

Source of the values: patent publication US20190209506A1, “METHODS OF REDUCING OR PREVENTING OXIDATION OF LDL OR LIPID MEMBRANES IN A SUBJECT IN NEED THEREOF” (Amarin Pharmaceuticals Ireland Limited, priority 2018, published 2019).
